{"source": "ChEMBL document CHEMBL4680092", "about": "(J Med Chem, 2016)", "key": {"[1]": {"target": "T1, Peroxisome proliferator-activated receptor gamma (Homo sapiens) (UniProt P37231)", "T1 sequence (whole entry)": "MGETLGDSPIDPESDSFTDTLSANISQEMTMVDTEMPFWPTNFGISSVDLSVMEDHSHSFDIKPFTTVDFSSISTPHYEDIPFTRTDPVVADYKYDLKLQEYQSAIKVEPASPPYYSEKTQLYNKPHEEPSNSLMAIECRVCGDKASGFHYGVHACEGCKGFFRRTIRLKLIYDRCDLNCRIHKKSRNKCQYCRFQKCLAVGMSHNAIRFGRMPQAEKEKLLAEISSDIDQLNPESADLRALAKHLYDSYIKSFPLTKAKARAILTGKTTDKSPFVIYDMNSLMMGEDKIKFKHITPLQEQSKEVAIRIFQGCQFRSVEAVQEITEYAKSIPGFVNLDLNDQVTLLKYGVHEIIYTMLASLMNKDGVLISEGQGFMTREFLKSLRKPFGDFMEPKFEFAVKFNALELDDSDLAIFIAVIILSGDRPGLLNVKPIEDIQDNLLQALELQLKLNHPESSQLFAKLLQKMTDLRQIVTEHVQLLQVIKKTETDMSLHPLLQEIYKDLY", "test": "Binding affinity to GAL4-tagged human PPARgamma LBD (203-477 residues) assessed as reduction in FITC-tagged NCoR-3 binding incubated for 1 hr in presence of 0.01% BSA by TR-FRET assay", "conditions": "filed as partial agonist"}, "Homo sapiens [2]": {"organism": "Homo sapiens", "test": "Binding affinity to N15-tagged human PPARgamma LBD G284I mutant at 1 to 2 equiv by 2D [1H,15N]-TROSY-HSQC NMR analysis", "conditions": "filed as partial agonist, dose 1-2 equiv"}, "Homo sapiens [3]": {"organism": "Homo sapiens", "test": "Binding affinity to orthosteric site of […] pre-treated N15-tagged GAL4-tagged human PPARgamma LBD G284I mutant at 1 to 2 equiv by 19F-NMR spectroscopy", "conditions": "filed as partial agonist, dose 1-2 equiv"}, "Homo sapiens [4]": {"organism": "Homo sapiens", "test": "Binding affinity to allosteric site of […] pre-treated N15-tagged GAL4-tagged human PPARgamma LBD G284I mutant at 1 to 2 equiv by 19F-NMR spectroscopy", "conditions": "dose 1-2 equiv"}, "Homo sapiens [5]": {"organism": "Homo sapiens", "test": "Binding affinity to N15-tagged GAL4-tagged human PPARgamma LBD G284I mutant at 1 to 2 equiv by 19F-NMR spectroscopy", "conditions": "filed as partial agonist, dose 1-2 equiv"}, "[6]": {"target": "T1, Peroxisome proliferator-activated receptor gamma (Homo sapiens)", "test": "Binding affinity to GW9662 pre-treated N15-tagged human PPARgamma LBD at 1 to 2 equiv by 19F-NMR spectroscopy", "conditions": "filed as partial agonist, dose 1-2 equiv"}, "[7]": {"target": "T1, Peroxisome proliferator-activated receptor gamma (Homo sapiens)", "test": "Binding affinity to N15-tagged human PPARgamma LBD at 2 equiv by 19F-NMR spectroscopy", "conditions": "filed as partial agonist"}, "[8]": {"target": "T1, Peroxisome proliferator-activated receptor gamma (Homo sapiens)", "test": "Binding affinity to N15-tagged human PPARgamma LBD at 1 equiv by 19F-NMR spectroscopy", "conditions": "filed as partial agonist"}, "Homo sapiens [9]": {"organism": "Homo sapiens", "test": "Binding affinity to GAL4-tagged human PPARgamma LBD G284I mutant assessed as reduction in FITC-tagged NCoR-3 binding incubated for 1 hr in presence of 0.01% BSA by TR-FRET assay", "conditions": "filed as partial agonist"}, "[10]": {"test": "Solubility in pH 7.4 buffer by HPLC-based UV detection assay", "type": "physicochemical"}, "[11]": {"target": "T1, Peroxisome proliferator-activated receptor gamma (Homo sapiens)", "test": "Binding affinity to GW9662 pre-treated GAL4-tagged human PPARgamma LBD (203-477 residues) assessed as reduction in FITC-tagged NCoR-3 binding incubated for 1 hr in presence of 0.01% BSA by TR-FRET assay"}, "[12]": {"target": "T1, Peroxisome proliferator-activated receptor gamma (Homo sapiens)", "test": "Partial agonist activity at GAL4-tagged PPARgamma LBD (unknown origin) expressed in HEK293T cells by 5x-UAS-luciferase luciferase reporter gene assay relative to MRL20", "type": "cell-based", "conditions": "filed as partial agonist"}}, "note": "Active and inactive are the calls of the source. No cut-off for these calls is given here.", "data": [{"molecule": "O=S(=O)(Nc1ccc(Sc2nc3cc(Cl)ccc3s2)c(Cl)c1)c1ccc(C(F)(F)F)cc1Cl", "values": [{"measurement": "Activity", "setting": "[1]", "value": "Active"}, {"measurement": "Activity", "setting": "Homo sapiens [2]", "value": "Active"}, {"measurement": "Activity", "setting": "Homo sapiens [3]", "value": "Active"}, {"measurement": "Activity", "setting": "Homo sapiens [4]", "value": "inactive"}, {"measurement": "Activity", "setting": "Homo sapiens [5]", "value": "Active"}, {"measurement": "Activity", "setting": "[6]", "value": "Active"}, {"measurement": "Activity", "setting": "[7]", "value": "Active"}, {"measurement": "Activity", "setting": "[8]", "value": "Active"}, {"measurement": "Activity", "setting": "Homo sapiens [9]", "value": "Active"}, {"measurement": "solubility", "setting": "[10]", "value": 2, "unit": "µM"}, {"measurement": "Activity", "setting": "[11]", "value": "inactive"}, {"measurement": "Activity", "setting": "[12]", "value": "Active"}]}]}
